Data taken from patent US4665068A, “Novel 9-chloro-1,5-benzothiazepine derivatives and their pharmaceutical use” (Tanabe Seiyaku Co., Ltd., priority 1984, dated 1987).
Structures can show the parent of a compound that is named as a salt.

How the values were obtained:
[1] = test system: vertebral artery blood flow; experiment: Cerebral vasodilating activity, blood flow in vertebral artery of anesthetized dogs; format: in vivo, dog (male); details: for Cerebral vasodilating activity (potency ratio): potency ratio to papaverine from dose-response curves, injected into vertebral artery; for increase in vertebral artery blood flow / cerebral vasodilating activity, times stronger than the 7-chloro derivative: intraarterial; for cerebral vasodilating activity, times stronger than the 7-chloro derivative: vs (±)-cis-3-acetoxy-7-chloro derivative hydrochloride
Procedure: (§1) On the other hand, when the coronary vasodilating activity is estimated by the Langendorff method using isolated hearts of guinea pigs, said activity of (+)-cis-2-(4-methoxyphenyl)-3-acetoxy-5-[2-(dimethylamino)ethyl]-9-chloro- 2,3-dihydro-1,5-benzothiazepin-4(5H)-one hydrochloride is about 10 times stronger than that of papaverine.
(Cerebral vasodilating activity)
Male dogs weighing 10 to 20 kg were anesthetized with sodium pentobarbital (30 mg/kg, intravenous injection). The blood flow in vertebral artery was measured continuously by means of an electromagnetic flowmeter under artificial respiration. A test compound dissolved in an aqueous 5% glucose solution was injected into vertebral artery. The cerebral vasodilating activity of the test compound was estimated in terms of the potency ratio of said compound to papaverine, which was calculated from the dose-response curves thereof.

[2] = test system: coronary blood flow of the isolated heart of guinea pig; experiment: Coronary vasodilating activity, Langendorff's method, isolated heart of guinea pig; details: for Coronary vasodilating activity: isolated guinea pig heart
From the text: as §1
(Coronary vasodilating activity)
Langendorff's method was used for testing the effect on the coronary blood flow of the isolated heart of guinea pig (about 280 g). The isolated heart was perfused with Locke-Ringer solution containing 2% of defibrinated rabbit blood, which had been saturated with a mixed gas of 95% O2 and 5% CO2 (30° C.). Perfusion pressure was kept at 40 cm H2 O. A solution of a test compound in an aqueous 5% glucose solution was injected into the perfusing solution at a volume of 0.1 ml per heart. The outflow of the perfusate was measured by means of a drop counter.
The coronary vasodilating activity of the test compound was expressed as "±" if the increase in coronary blood flow is less than 0.5 ml/minute at a dose of 100 μg/heart; "+" if the increase is not less than 0.5 ml/minute at a dose of 100 μg/heart; "++" if the increase is not less than 0.5 ml/minute at a dose of 30 μg/heart; and "+++" if the increase is not less than 0.5 ml/minute at a dose of not more than 10 μg/heart.

platelet aggregation = experiment: Platelet aggregation-inhibiting activity (collagen, platelet-rich plasma, Born's method); format: cell-based, rat (male Sprague-Dawley); design: key to the marks not given beside the values; details: final concentration 100 μg/ml, rat PRP, 37° C.
From the text: (Platelet aggregation-inhibiting activity)
Blood was collected from the abdominal aorta of male Sprague-Dawley rats which were anesthetized with ether. Nine volumes of rat blood were mixed with one volume of an aqueous trisodium citrate solution, and the mixture was centrifuged to give platelet-rich plasma ("PRP") as the supernatant solution. The bottom layer was further centrifuged to give platelet-poor plasma ("PPP") as the supernatant solution. Platelet counts were adjusted to 0.8-1×10^6 /mm^3 for PRP by dilution with PPP. After a mixture of 200 μl of the diluted PRP and 25 μl of a test compound solution (final concentration: 100 μg/ml) was stirred for 2 minutes at 37° C., 25 μl of a collagen solution [Biochim. Biophys.

[3] = test system: spontaneously hypertensive rats (SHR); experiment: Hypotensive activity, systolic blood pressure of SHR after oral dosing (tail plethysmographic technique); format: in vivo, rat (spontaneously hypertensive; details: 30 mg/kg oral
Procedure: A test compound (dose: 30 mg/kg) dissolved or suspended in water was administered orally to spontaneously hypertensive rats (SHR) (one group: 3 rats) fasted overnight. […] The hypotensive activity of the test compound was estimated at one or 4 hours after dosing and expressed as "-" if the decrease in blood pressure is less than 10 mm Hg; "+" if the decrease is not less than 10 mm Hg but less than 20 mm Hg; "++" if the decrease is not less than 20 mm Hg but less than 40 mm Hg; "+++" if the decrease is not less than 40 mm Hg but less than 60 mm Hg; or "++++" if the decrease is not less than 60 mm Hg.

[4] = Acute toxicity, oral, mice; details: mouse, in vivo
Procedure: For example, the acute toxicity (LD50) of (+)-cis-2-(4-methoxypnenyl)-3-acetoxy-5-[2-(dimethylamino)ethyl]-9-chloro- 2,3-dihydro-1,5-benzothiazepin-4(5H)-one hydrochloride when orally administered to mice is about 1,000 mg/kg.

Structure (SMILES)	Cerebral vasodilating activity (potency ratio) [1]	Coronary vasodilating activity [2]	Hypotensive activity, 1 hr after dosing [3]	Hypotensive activity, 4 hrs after dosing [3]	other results
COc1ccc([C@@H]2Sc3ccc(Cl)cc3N(CCN(C)C)C(=O)[C@@H]2OC(C)=O)cc1.Cl (racemic) [(±)-cis-2-(4-methoxyphenyl)-3-acetoxy-5-[2-(dimethylamino)ethyl]-7-chloro-2,3-dihydro-1,5-benzothiazepin-4(5H)-one hydrochloride, reference compound]	5				
COc1ccc([C@@H]2Sc3c(Cl)cccc3N(CCN(C)C)C(=O)[C@@H]2OC(C)=O)cc1.Cl (racemic) [(±)-cis-2-(4-methoxyphenyl)-3-acetoxy-5-[2-(dimethylamino)ethyl]-9-chloro-2,3-dihydro-1,5-benzothiazepin-4(5H)-one hydrochloride]		+++ (increase is not less than 0.5 ml/minute at a dose of not more than 10 μg/heart)	+++ (decrease is not less than 40 mm Hg but less than 60 mm Hg)	+++ (decrease is not less than 40 mm Hg but less than 60 mm Hg)	Platelet aggregation-inhibiting activity (platelet aggregation): ++
COc1ccc([C@@H]2Sc3c(Cl)cccc3N(CCN(C)C)C(=O)[C@@H]2O)cc1.Cl (racemic) [(±)-cis-2-(4-methoxyphenyl)-3-hydroxy-5-[2-(dimethylamino)ethyl]-9-chloro-2,3-dihydro-1,5-benzothiazepin-4(5H)-one hydrochloride]		+++ (increase is not less than 0.5 ml/minute at a dose of not more than 10 μg/heart)			Platelet aggregation-inhibiting activity (platelet aggregation): ++
COc1ccc([C@@H]2Sc3ccc(Cl)cc3N(CCN(C)C)C(=O)[C@@H]2OC(C)=O)cc1 (relative stereo) [(+)-cis-2-(4-methoxyphenyl)-3-acetoxy-5-[2-(dimethylamino)ethyl]-7-chloro-2,3-dihydro-1,5-benzothiazepin-4(5H)--one hydrochloride, reference compound]			++ (decrease is not less than 20 mm Hg but less than 40 mm Hg)	+ (decrease is not less than 10 mm Hg but less than 20 mm Hg)	
COc1ccc([C@@H]2Sc3c(Cl)cccc3N(CCN(C)C)C(=O)[C@@H]2OC(C)=O)cc1.Cl (single isomer, unassigned) [(+)-cis-2-(4-methoxyphenyl)-3-acetoxy-5-[2-(dimethylamino)ethyl]-9-chloro-2,3-dihydro-1,5-benzothiazepin-4(5H)-one hydrochloride]	15	+++ (increase is not less than 0.5 ml/minute at a dose of not more than 10 μg/heart)	++++ (decrease is not less than 60 mm Hg)	+++ (decrease is not less than 40 mm Hg but less than 60 mm Hg)	increase in vertebral artery blood flow [1]: remarkable increase in vertebral artery blood flow; cerebral vasodilating activity, times stronger than the 7-chloro derivative [1]: more than 3 times; coronary vasodilating activity, times stronger than papaverine ([2]; isolated guinea pig hearts, vs papaverine): about 10 times; LD50 [4]: ~1000 mg/kg; decrease in blood pressure, one hour after administration ([3]; 1 hour): about 74 mm Hg; decrease in blood pressure, 4 hours after administration ([3]; 4 hours): ~54 mm Hg
COc1ccc([C@@H]2Sc3c(Cl)cccc3N(CCN(C)C)C(=O)[C@@H]2O)cc1.[O-][Cl+3]([O-])([O-])O (single isomer, unassigned) [(+)-cis-2-(4-methoxyphenyl)-3-hydroxy-5-[2-(dimethylamino)ethyl]-9-chloro-2,3-dihydro-1,5-benzothiazepin-4(5H)-one perchlorate]	22	+++ (increase is not less than 0.5 ml/minute at a dose of not more than 10 μg/heart)	+++ (decrease is not less than 40 mm Hg but less than 60 mm Hg)	++ (decrease is not less than 20 mm Hg but less than 40 mm Hg)	increase in vertebral artery blood flow [1]: remarkable increase in vertebral artery blood flow; cerebral vasodilating activity, times stronger than the 7-chloro derivative [1]: more than 3 times
COc1ccc(Cc2nccc3cc(OC)c(OC)cc23)cc1OC [Papaverine, reference compound]		+ (increase is not less than 0.5 ml/minute at a dose of 100 μg/heart)			
